Laboratory results published in patent US10434112B2, “Use of agonists of formyl peptide receptor 2 for treating dermatological diseases” (Allergan, Inc., priority 2013, dated 2019).

How the values were obtained:
[1] = target: FPRL-1 (Homo sapiens (Human), UniProt P25090); assay: FPRL-1 Ga16-CHO EC50 (efficacy); assay type: cell-based; details: for FPRL-1 Ga16-CHO (efficacy): value in brackets
[2] = target: human FPR2 receptor (Homo sapiens (Human), UniProt P25090); assay: FLIPR Ca+2 response in HEK-Gα16 cells stably expressing the human FPR2 receptor; assay type: cell-based; set-up: FPR2 (% eff): unit not given here; details: Table 4; value in brackets, given mostly as fraction
human FPR2 receptor, sequence (P25090 whole entry): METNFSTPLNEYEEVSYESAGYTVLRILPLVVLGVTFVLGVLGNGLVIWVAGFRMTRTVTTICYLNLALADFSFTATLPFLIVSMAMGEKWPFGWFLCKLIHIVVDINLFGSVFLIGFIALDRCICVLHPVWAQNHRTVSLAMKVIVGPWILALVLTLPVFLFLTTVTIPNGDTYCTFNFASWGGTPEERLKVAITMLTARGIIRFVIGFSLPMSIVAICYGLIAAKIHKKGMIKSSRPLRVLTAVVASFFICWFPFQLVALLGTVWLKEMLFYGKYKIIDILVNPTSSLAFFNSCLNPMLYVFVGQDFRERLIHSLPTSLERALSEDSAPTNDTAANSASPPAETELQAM
Outline: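 HEK-Gα16 cells stably expressing human FPR2, loaded with 2 μM Fluo-4 in HBSS/20 mM HEPES for 40 min at 37° C., then washed. Ligands added in HBSS/Hepes and Ca+2 responses recorded on FLIPR in relative fluorescence units.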

FPRL-1, sequence (P25090 whole entry): as above

| FPR2 (% eff) [2] | Structure (SMILES) | other results |
| --- | --- | --- |
| 0.92 | CCC1(CCc2ccccc2C(=O)OC)NC(=O)N(NC(=O)Nc2ccc(Br)cc2)C1=O (stereo not shown) [Compound 141, methyl 2-[2-(1-{[(4-bromophenyl)carbamoyl]amino}-4-ethyl-2,5-dioxoimidazolidin-4-yl)ethyl]benzoate] | – |
| 0.92 | CC(C)C1(CC(=O)NC(CO)CO)NC(=O)N(NC(=O)Nc2ccc(Br)cc2)C1=O (stereo not shown) [Compound 142, 2-[1-{[(4-bromophenyl)carbamoyl]amino}-2,5-dioxo-4-(propan-2-yl)imidazolidin-4-yl]-N-(1,3-dihydroxypropan-2-yl)acetamide] | – |
| 1.0 | CCC1(CCc2ccccc2C(=O)O)NC(=O)N(NC(=O)Nc2ccc(Br)cc2)C1=O (stereo not shown) [Compound 143, 2-[2-(1-{[(4-bromophenyl)carbamoyl]amino}-4-ethyl-2,5-dioxoimidazolidin-4-yl)ethyl]benzoic acid] | – |
| 0.91 | CSCC[C@H](NC(=O)Nc1ccc(Br)cc1)C(=O)NCC(=O)O [Compound 144, {[(2S)-2-{[(4-bromophenyl)carbamoyl]amino}-4-(methylsulfanyl)butanoyl]amino}acetic acid] | – |
| 1.0 | CC(C)C1(CC(=O)NCCC(=O)O)NC(=O)N(NC(=O)Nc2ccc(Br)cc2F)C1=O (stereo not shown) [Compound 145, 3-({[1-{[(4-bromo-2-fluorophenyl)carbamoyl]amino}-2,5-dioxo-4-(propan-2-yl)imidazolidin-4-yl]acetyl}amino)propanoic acid] | – |
| 1.0 | CCC1(CCc2ccccc2C(=O)O)NC(=O)N(NC(=O)Nc2ccc(Br)cc2F)C1=O (stereo not shown) [Compound 146, 2-[2-(1-{[(4-bromo-2-fluorophenyl)carbamoyl]amino}-4-ethyl-2,5-dioxoimidazolidin-4-yl)ethyl]benzoic acid] | – |
| 0.99 | CC(C)C1(CC(=O)NCCC(=O)O)NC(=O)N(NC(=O)Nc2ccc(Br)cc2)C1=O (stereo not shown) [Compound 147, 3-({[1-{[(4-bromophenyl)carbamoyl]amino}-2,5-dioxo-4-(propan-2-yl)imidazolidin-4-yl]acetyl}amino)propanoic acid] | – |
| 0.98 | CC(C)C1(CC(=O)NCCO)NC(=O)N(NC(=O)Nc2ccc(Br)cc2F)C1=O (stereo not shown) [Compound 148, 2-[1-{[(4-bromo-2-fluorophenyl)carbamoyl]amino}-2,5-dioxo-4-(propan-2-yl)imidazolidin-4-yl]-N-(2-hydroxyethyl)acetamide] | – |
| 0.94 | CCOC(=O)CCC1(C(C)C)NC(=O)N(NC(=O)Nc2ccc(Br)cc2)C1=O (stereo not shown) [Compound 149, ethyl 3-[1-{[(4-bromophenyl)carbamoyl]amino}-2,5-dioxo-4-(propan-2-yl)imidazolidin-4-yl]propanoate] | – |
| 1.0 | CC(C)C1(CCc2ccccc2C(=O)O)NC(=O)N(NC(=O)Nc2ccc(Br)cc2)C1=O (stereo not shown) [Compound 151, 2-{2-[1-{[(4-bromophenyl)carbamoyl]amino}-2,5-dioxo-4-(propan-2-yl)imidazolidin-4-yl]ethyl}benzoic acid] | – |
| 0.99 | CCOC(=O)C1CCC2(CC1)NC(=O)N(NC(=O)Nc1ccc(Br)cc1)C2=O (stereo not shown) [Compound 153, ethyl 3-{[(4-bromophenyl)carbamoyl]amino}-2,4-dioxo-1,3-diazaspiro[4.5]decane-8-carboxylate] | – |
| 0.85 | CC(C)C[C@H](NC(=O)Nc1ccc(Br)cc1)C(=O)N(C)CC(=O)OC(C)(C)C [Compound 154, tert-butyl {[(2S)-2-{[(4-bromophenyl)carbamoyl]amino}-4-methylpentanoyl](methyl)amino}acetate] | – |
| 1.0 | CC(C)C[C@H](NC(=O)Nc1ccc(Br)cc1)C(=O)N(C)CC(=O)O [Compound 155, {[(2S)-2-{[(4-bromophenyl)carbamoyl]amino}-4-methylpentanoyl](methyl)amino}acetic acid] | – |
| 0.99 | CC(C)C[C@H](NC(=O)Nc1ccc(C(F)(F)F)cc1)C(=O)NCS(=O)(=O)O [Compound 237, {[(2S)-4-methyl-2-({[4-(trifluoromethyl)phenyl]carbamoyl}amino)pentanoyl]amino}methanesulfonic acid] | – |

The next lines start with the compound.

| Structure (SMILES) | FPR2 (% eff) [2] | other results |
| --- | --- | --- |
| O=C(Nc1ccc(Br)cc1)NC(Cc1ccccc1)C(=O)O (stereo in doubt) [(2S)-2-({[(4- bromophenyl)amino]carbonyl}amino)- 3-phenylpro] [(2S)-2-({[(4-bromophenyl)amino]carbonyl}amino)-3-phenylpropanoic acid] | – | FPRL-1 Ga16-CHO (efficacy) ([1]; Table 1): 1.0 |
| O=C(Nc1ccc(Br)cc1)NC(Cc1ccccc1)C(=O)O (stereo in doubt) [(2S)-2-({[(4-bromophenyl)amino]carbonyl}amino)-3-phenylpropanoic acid] | – | EC50 ([1]; Table 1): 0.031 µM |
| CC1(CCc2ccccc2)NC(=O)N(NC(=O)Nc2ccccc2F)C1=O (stereo not shown) [1-(2-fluorophenyl)-3-[4-methyl-2,5-dioxo-4-(2-phenylethyl)imidazolidin-1-yl]urea] | – | FPRL-1 Ga16-CHO (efficacy) ([1]; Table 2): 0.94 |
| O=C(Nc1ccc(Cl)cc1)NN1C(=O)NC2(CCCCC2)C1=O [1-(4-chlorophenyl)-3-(2,4-dioxo-1,3-diazaspiro[4,5]decan-3-yl) urea] | – | FPRL-1 Ga16-CHO (efficacy) ([1]; Table 2): 0.98 |
| CCC1(C)NC(=O)N(NC(=O)Nc2ccc(Cl)cc2)C1=O (stereo not shown) [1-(4-chlorophenyl)-3-(4-ethyl-4-methyl-2,5-dioxoimidazolidin-1-yl)urea] | – | FPRL-1 Ga16-CHO (efficacy) ([1]; Table 2): 0.96 |
| Cc1ccc(NC(=O)NN2C(=O)NC3(CCC(C)CC3)C2=O)cc1 (stereo not shown) [1-(8-methyl-2,4-dioxo-1,3-diazaspiro[4,5]decan-3-yl)-3-(p-tolyl)urea] | – | FPRL-1 Ga16-CHO (efficacy) ([1]; Table 2): 0.91 |
| CC1(CCc2ccccc2)NC(=O)N(NC(=O)Nc2ccccc2)C1=O (stereo not shown) [1-[4-methyl-2,5-dioxo-4-(2-phenylethyl)imidazolidin-1-yl]-3-phenylurea] | – | FPRL-1 Ga16-CHO (efficacy) ([1]; Table 2): 1.0 |
| COc1ccc(NC(=O)NC(Cc2ccccc2)C(=O)O)cc1OC (stereo not shown) [2-({[(3,4-dimethoxyphenyl)amino]carbonyl}amino)-3-phenylpropanoic acid] | – | FPRL-1 Ga16-CHO (efficacy) ([1]; Table 1): 0.72 |
| O=C(Nc1ccc(Br)cc1)NC(Cc1c[nH]c2ccccc12)C(=O)O (stereo not shown) [2-({[(4-bromophenyl)amino]carbonyl}amino)-3-(1H-indol-3-yl)propanoic acid] | – | FPRL-1 Ga16-CHO (efficacy) ([1]; Table 1): 0.89 |
| O=C(Nc1ccc(Cl)cc1)NC(Cc1ccccc1)C(=O)O (stereo not shown) [2-({[(4-chlorophenyl)amino]carbonyl}amino)-3-phenylpropanoic acid] | – | FPRL-1 Ga16-CHO (efficacy) ([1]; Table 1): 1.0 |
| O=C(Nc1ccc(OC(F)(F)F)cc1)NC(Cc1ccccc1)C(=O)O (stereo not shown) [3-phenyl-2-[({[4-(trifluoromethoxy)phenyl]amino}carbonyl)amino]propanoic acid] | – | FPRL-1 Ga16-CHO (efficacy) ([1]; Table 1): 0.79 |
| O=C(Nc1ccc(Br)cc1)N[C@H](Cc1ccccc1)C(=O)O [(2R)-2-({[(4- bromophenyl)amino]carbonyl}amino)- 3-phenylpro] [(2R)-2-({[(4-bromophenyl)amino]carbonyl}amino)-3-phenylpropanoic acid] | – | FPRL-1 Ga16-CHO (efficacy) ([1]; Table 1): 0.99 |
| O=C(Nc1ccc(Cl)c(Cl)c1)N[C@@H](Cc1ccccc1)C(=O)O [(2S)-2-({[(3,4-dichlorophenyl)amino]carbonyl}amino)-3-phenylpropanoic acid] | – | FPRL-1 Ga16-CHO (efficacy) ([1]; Table 1): 0.57 |
| CC(C)[C@H](NC(=O)Nc1ccc(Br)cc1F)C(=O)O [(2S)-2-({[(4-bromo-2-fluorophenyl)amino]carbonyl}amino)-3-methylbutanoic acid] | – | FPRL-1 Ga16-CHO (efficacy) ([1]; Table 1): 0.91 |
| CC(C)C[C@H](NC(=O)Nc1ccc(Br)cc1)C(=O)NCP(=O)(OC(C)C)OC(C)C [Compound 131, dipropan-2-yl({[(2S)-2-{[(4-bromophenyl)carbamoyl]amino}-4-methylpentanoyl]amino}methyl)phosphonate] | 1.0 | – |
| CC(C)C1(CO)NC(=O)N(NC(=O)Nc2ccc(Br)cc2)C1=O (stereo not shown) [Compound 132, 1-(4-bromophenyl)-3[4-(hydroxymethyl)-2,5-dioxo-4-(propan-2-yl)imidazolidin-1-yl]urea] | 0.86 | – |
| CC(C)C1(CC(=O)NCCO)NC(=O)N(NC(=O)Nc2ccc(Br)cc2)C1=O (stereo not shown) [Compound 133, 2-[1-{[(4-bromophenyl)carbamoyl]amino}-2,5-dioxo-4-(propan-2-yl)imidazolidin-4-yl]-N-(2-hydroxyethyl)acetamide] | 1.0 | – |
| CCOP(=O)(CNC(=O)[C@H](CC(C)C)NC(=O)Nc1ccc(C(F)(F)F)cc1)OCC [Compound 134, diethyl ({[(2S)-4-methyl-2-({[4-(trifluoromethyl)phenyl]carbamoyl}amino)pentanoyl]amino}methyl)phosphonate] | 0.97 | – |
| CCOP(=O)(O)CNC(=O)[C@H](CC(C)C)NC(=O)Nc1ccc(C(F)(F)F)cc1 [Compound 135, ethyl hydrogen ({[(2S)-4-methyl-2-({[4-(trifluoromethyl)phenyl]carbamoyl}amino)pentanoyl]amino}methyl)phosphonate] | 0.91 | – |
| CC(C)C[C@H](NC(=O)Nc1ccc(C(F)(F)F)cc1)C(=O)NCc1nnn[nH]1 [Compound 136, (2S)-4-methyl-N-(1H-tetrazol-5-ylmethyl)-2-({[4-(trifluoromethyl)phenyl]carbamoyl}amino)pentanamide] | 0.96 | – |
| CCOP(=O)(CNC(=O)[C@H](CC(C)C)NC(=O)Nc1ccc(SC)cc1)OCC [Compound 138, diethyl ({[(2S)-4-methyl-2-({[4-(methylsulfanyl)phenyl]carbamoyl}amino)pentanoyl]amino}methyl)phosphonate] | 0.91 | – |
| CC(C)C[C@H](NC(=O)Nc1ccc(C(F)(F)F)cc1)C(=O)NC(C)(C)C(=O)O [Compound 139, 2-methyl-2-{[(2S)-4-methyl-2-({[4-(trifluoromethyl)phenyl]carbamoyl}amino)pentanoyl]amino}propanoic acid] | 0.92 | – |
| CCOP(=O)(CCNC(=O)CC1(C(C)C)NC(=O)N(NC(=O)Nc2ccc(Br)cc2)C1=O)OCC (stereo not shown) [Compound 152, diethyl [2-({[1-{[(4-bromophenyl)carbamoyl]amino}-2,5-dioxo-4-(propan-2-yl)imidazolidin-4-yl]acetyl}amino)ethyl] phosphonate] | 1.0 | – |
